Assay results reported in the supplement of paper PMC13380429.
Where a name gives a salt, the structure may show the parent alone.

Experiments:
[1] = tested on: Vero E6; test: relative viability EC50 (midpoint between 100% and the lowest measured viability); higher = less toxic; conditions: 72 h
[2] = tested on: HepG2; test: as above; conditions: 72 h
[3] = tested on: Calu-3; test: as above; conditions: 72 h
[4] = tested on: A549-ACE2; test: drug-induced phospholipidosis relative to tamoxifen; higher = more phospholipidosis
[5] = tested on: U2OS; test: drug sensitivity score (DSS) for viability; higher = more toxic; extreme values may be limits of the assay; conditions: 72 h
[6] = tested on: Caco-2; test: as above; conditions: 72 h
[7] = tested on: Vero E6; test: as above; conditions: 72 h
[8] = tested on: HepG2; test: as above; conditions: 72 h
[9] = tested on: Calu-3; test: as above; conditions: 72 h
[10] = tested on: A549-ACE2 infected with SARS-CoV-2; test: cell count relative to DMSO; higher = less toxic; conditions: 24 h
[11] = tested on: A549-ACE2 infected with SARS-CoV-2; test: SARS-CoV-2 infection rate relative to DMSO; higher = more infection; conditions: 24 h
[12] = tested on: A549-ACE2; test: phospholipidosis EC50; higher = less potent phospholipidosis inducer
[13] = tested on: A549-ACE2 infected with SARS-CoV-2; test: morphology score (similarity to uninfected cells); higher = more like uninfected cells; conditions: 24 h
[14] = tested on: U2OS; test: cell viability relative to DMSO; higher = less toxic; conditions: 72 h
[15] = tested on: Caco-2; test: as above; conditions: 72 h
[16] = tested on: Vero E6; test: as above; conditions: 72 h
[17] = tested on: HepG2; test: as above; conditions: 72 h
[18] = tested on: Calu-3; test: as above; conditions: 72 h
[19] = tested on: U2OS; test: relative viability EC50 (midpoint between 100% and the lowest measured viability); higher = less toxic; conditions: 72 h
[20] = tested on: Caco-2; test: as above; conditions: 72 h

O=C(Nc1ncc(SCCN2CCCC2)s1)[C@]1(c2ccc(S(=O)(=O)C3CC3)cc2)C[C@H]1C1CCCCC1
Conditions	drug sensitivity score	relative viability EC50
[1]	–	> 10 µM
[2]	–	1840 nM
[3]	–	3.34 µM
[5]	0.8	–
[6]	1.3	–
[7]	0	–
[8]	4.6	–
[9]	4.6	–

drug-induced phospholipidosis [%], [4]
Conditions	0.3 µM	0.833333 µM	3.33333 µM	6.66667 µM	10 µM	30 µM
24 h	14.6	32.7	73.1	104	117	197
48 h	10.1	21.2	80.9	105	132	–
72 h	11.7	19.3	75.5	114	138	–

Conditions	SARS-CoV-2 infection rate [%]	cell count [%]	cell viability [%]	morphology score	phospholipidosis EC50 [µM]
[10], 0.3 µM	–	101	–	–	–
[10], 3 µM	–	115	–	–	–
[10], 10 µM	–	118	–	–	–
[10], 30 µM	–	56	–	–	–
[11], 0.3 µM	94	–	–	–	–
[11], 3 µM	27	–	–	–	–
[11], 10 µM	8	–	–	–	–
[11], 30 µM	44	–	–	–	–
[12], 24 h	–	–	–	–	6.5
[12], 48 h	–	–	–	–	5.12
[12], 72 h	–	–	–	–	5.4
[13], 0.3 µM	–	–	–	0.2	–
[13], 3 µM	–	–	–	0.84	–
[13], 10 µM	–	–	–	0.6	–
[13], 30 µM	–	–	–	-0.07	–
[14], 1 nM	–	–	99.4	–	–
[14], 10 nM	–	–	105	–	–
[14], 100 nM	–	–	104	–	–
[14], 1000 nM	–	–	102	–	–
[14], 10000 nM	–	–	74.9	–	–
[15], 1 nM	–	–	101	–	–
[15], 10 nM	–	–	98.9	–	–
[15], 100 nM	–	–	98	–	–
[15], 1000 nM	–	–	102	–	–
[15], 10000 nM	–	–	69	–	–
[16], 1 nM	–	–	96.3	–	–
[16], 10 nM	–	–	94.6	–	–
[16], 100 nM	–	–	97.2	–	–
[16], 1000 nM	–	–	90.5	–	–
[16], 10000 nM	–	–	95.4	–	–
[17], 1 nM	–	–	104	–	–
[17], 10 nM	–	–	99.2	–	–
[17], 100 nM	–	–	98.6	–	–
[17], 1000 nM	–	–	90.2	–	–
[17], 10000 nM	–	–	44.8	–	–
[18], 1 nM	–	–	110	–	–
[18], 10 nM	–	–	93.8	–	–
[18], 100 nM	–	–	96.4	–	–
[18], 1000 nM	–	–	103	–	–
[18], 10000 nM	–	–	14	–	–

C[C@@H]1COCCN1c1cc(=O)n2c(n1)N(Cc1cncc(Cl)c1)[C@H](C(F)(F)F)CC2 [SAR405]
Conditions	drug sensitivity score	relative viability EC50 [µM]
[3]	–	> 10
[5]	2	–
[6]	8.1	–
[7]	2.2	–
[8]	5.2	–
[9]	0	–

drug-induced phospholipidosis [%], [4]
Conditions	0.3 µM	0.833333 µM	3.33333 µM	6.66667 µM	10 µM	30 µM
24 h	-2.02	-6.84	10.5	23.4	28.8	39.3
48 h	1.08	-10.5	7.2	36.3	–	–
72 h	3.73	-7.79	5.27	–	–	–

Conditions	SARS-CoV-2 infection rate, [11] [%]	cell count, [10] [%]	cell viability, [14] [%]	cell viability, [15] [%]	cell viability, [16] [%]	cell viability, [17] [%]	cell viability, [18] [%]	morphology score, [13]
1 nM	–	–	97.4	84.5	105	98.1	99.7	–
10 nM	–	–	96.8	91.1	108	105	97.3	–
0.1 µM	94	105	–	–	–	–	–	0.11
100 nM	–	–	99.2	80.6	104	101	109	–
0.3 µM	88	102	–	–	–	–	–	0.09
1 µM	58	114	–	–	–	–	–	0.48
1000 nM	–	–	96.3	59.7	96.9	76.9	104	–
3 µM	31	104	–	–	–	–	–	0.5
10000 nM	–	–	68.9	76.3	63.8	55.5	88.6	–

Cc1ccc(S(=O)(=O)/C=C/C#N)cc1 [BAY-11-7082]
Conditions	drug sensitivity score	relative viability EC50
[1]	–	2.47 µM
[2]	–	2310 nM
[5]	5.9	–
[6]	4.3	–
[7]	6	–
[8]	7.2	–
[9]	2	–
[19]	–	2960 nM
[20]	–	2940 nM

drug-induced phospholipidosis [%], [4]
Conditions	0.3 µM	0.833333 µM	3.33333 µM	6.66667 µM	10 µM
24 h	1.81	0.62	1.15	1.47	1.45
48 h	2.31	0.11	-1.24	0.67	2.43
72 h	3.69	-0.813	-2.01	-1.91	-1.18

Conditions	SARS-CoV-2 infection rate, [11] [%]	cell count, [10] [%]	cell viability, [14] [%]	cell viability, [15] [%]	cell viability, [16] [%]	cell viability, [17] [%]	cell viability, [18] [%]	morphology score, [13]
1 nM	–	–	97.2	92.8	95.5	94.2	104	–
10 nM	–	–	98.7	90.5	94.4	96.9	101	–
0.1 µM	106	101	–	–	–	–	–	0
100 nM	–	–	98.5	95.4	99.7	101	110	–
0.3 µM	99	98	–	–	–	–	–	-0.16
1 µM	108	95	–	–	–	–	–	-0.29
1000 nM	–	–	97.2	97.7	92.6	89.7	107	–
3 µM	107	84	–	–	–	–	–	-0.27
10000 nM	–	–	0.1	27	12.9	0	52.2	–

CC/C(=C(\c1ccc(O)cc1)c1ccc(OCCNC)cc1)c1ccccc1 [Endoxifen HCl]
Conditions	drug sensitivity score	relative viability EC50
[1]	–	> 10 µM
[2]	–	3530 nM
[3]	–	3.19 µM
[6]	2.1	–
[7]	0	–
[8]	3.1	–
[9]	5.3	–

drug-induced phospholipidosis [%], [4]
Conditions	0.3 µM	0.833333 µM	3.33333 µM	6.66667 µM	10 µM
24 h	5.89	13.1	65.7	78.7	78.6
48 h	5.61	7.92	62.4	83.1	77.4
72 h	8.35	4.33	55.2	86.8	88.4

Conditions	SARS-CoV-2 infection rate [%]	cell count [%]	cell viability [%]	morphology score	phospholipidosis EC50 [µM]
[10], 0.3 µM	–	98	–	–	–
[10], 3 µM	–	123	–	–	–
[10], 10 µM	–	118	–	–	–
[10], 30 µM	–	25	–	–	–
[11], 0.3 µM	100	–	–	–	–
[11], 3 µM	30	–	–	–	–
[11], 10 µM	8	–	–	–	–
[11], 30 µM	86	–	–	–	–
[12], 24 h	–	–	–	–	1.9
[12], 48 h	–	–	–	–	3
[12], 72 h	–	–	–	–	3.1
[13], 0.3 µM	–	–	–	0.02	–
[13], 3 µM	–	–	–	0.87	–
[13], 10 µM	–	–	–	0.84	–
[13], 30 µM	–	–	–	-0.2	–
[15], 1 nM	–	–	104	–	–
[15], 10 nM	–	–	115	–	–
[15], 100 nM	–	–	106	–	–
[15], 1000 nM	–	–	105	–	–
[15], 10000 nM	–	–	53.6	–	–
[16], 1 nM	–	–	103	–	–
[16], 10 nM	–	–	105	–	–
[16], 100 nM	–	–	103	–	–
[16], 1000 nM	–	–	99.9	–	–
[16], 10000 nM	–	–	91.1	–	–
[17], 1 nM	–	–	110	–	–
[17], 10 nM	–	–	95.4	–	–
[17], 100 nM	–	–	103	–	–
[17], 1000 nM	–	–	105	–	–
[17], 10000 nM	–	–	36.5	–	–
[18], 1 nM	–	–	102	–	–
[18], 10 nM	–	–	94	–	–
[18], 100 nM	–	–	96.6	–	–
[18], 1000 nM	–	–	100	–	–
[18], 10000 nM	–	–	5.1	–	–
